According to patent US8536120B2 (The Administrators of The Tulane Educational Fund, priority 2006, dated 2013):
Each block holds one compound with its values, some of them ahead of it. Where a SMILES comes first, the peptide text is derived from it. Where no end group is shown, it is not given here. [ ]: non-standard residue; d: D form. dTrp(2-Me) = Cc1[nH]c2ccccc2c1C[C@@H](N)C(=O)O; d2Nal = N[C@H](Cc1ccc2ccccc2c1)C(=O)O

Assays:
[1] = molecular target: T1, human ghrelin receptor type 1a (GHS-R1a) (Homo sapiens, UniProt Q92847); test: Receptor binding: displacement of radiolabelled ghrelin on membranes of HEK-293 cells; conditions: read-out: binding affinities (Ki)
T1 construct: expressed in transfected cells; host or cells: HEK-293 cells (membranes)

[2] = molecular target: T2, ghrelin receptor (Rattus norvegicus, UniProt O08725); test: Ghrelin-induced GH release in free-moving adult male rats after GHS-A pretreatment (icv or iv); format: in vivo; conditions: vs normal saline; for Plasma GH response to ghrelin i.c.v.: 5 μg antagonist icv 15 min before 500 ng ghrelin icv
T2 construct: from tissue; host or cells: whole animal (rat), i.c.v. or i.v. dosing
Protocol: (§1) Adult male Sprague Dawley rats (225-260 g) were purchased from Charles River Canada (St. Constant, Canada) and individually housed on a 12-h light, 12-h dark cycle (lights on, 0600-1800 h) in a temperature (22±1° C.)—and humidity-controlled room. Purina rat chow (Ralston Purina Co., St. Louis, Mo.) and tap water were available ad libitum.
(§2) Chronic intracerebroventricular (i.c.v.) and intracardiac venous cannulas were implanted under sodium pentobarbital (50 mg/kg, i.p.) anesthesia using previously described techniques in (2) and (11). The placement of the icv cannulae was verified by both a positive drinking response to i.c.v. carbachol (100 ng/10 μl) injection on the day after surgery and methylene blue dye at the time of death. After surgery, the rats were placed directly in isolation test chambers with food and H2O freely available until body weight returned to preoperative levels (usually within 5-7 d). During this time the rats were handled daily to minimize any stress associated with handling on the day of the experiment. On the test day, food was removed 1.5 h before the start of sampling and was returned at the end.
The efficacy of GHS-A to antagonize ghrelin's stimulatory action on GH at both central and peripheral sites was examined. […] (500 ng). Both the human ghrelin peptide (provided by Dr. K. Chang, Phoenix Pharmaceuticals, Inc., Belmont, Calif.) and the GHS-A were diluted in normal saline just before use. Blood samples (0.35 ml) were withdrawn every 15 min over a 6-h sampling period (1000-1600 h) from all animals. […] All blood samples were immediately centrifuged, and plasma was separated and stored at −20° C. for subsequent assay of GH. To avoid hemodynamic disturbance, the red blood cells were resuspended in normal saline and returned to the animal after removal of the next blood sample.
Blood samples were withdrawn from 1000-1600 h, as described above.

[3] = molecular target: T2, ghrelin receptor; test: Spontaneous pulsatile GH secretion in free-moving rats after icv GHS-A; format: in vivo; conditions: 5 μg GHS-A icv; vs normal saline; P<0.01 or less
Protocol: as §1, §2
These time points were chosen because they correspond closely to the time of onset of the spontaneous GH secretory episodes, as previously documented in our laboratory (2, 4). […]

[4] = molecular target: T2, ghrelin receptor; test: Spontaneous food intake in overnight-fasted rats after icv GHS-A; format: in vivo; conditions: 5 μg GHS-A icv; overnight-fasted animals; P<0.004 vs normal saline
Protocol: as §1
Chronic intracerebroventricular (i.c.v.) and intracardiac venous cannulas were implanted under sodium pentobarbital (50 mg/kg, i.p.) anesthesia using previously described techniques in (2) and (11). […]
The effects of the GHS-A on both spontaneous and ghrelin-induced food intake and body weight gain were investigated. […] Food intake was monitored on an hourly basis for 5 h after the initial injection (until 1600 h) and subsequently overnight (1600-0900 h next morning). A measured amount of rat chow pellets was placed in the cage every hour. Spillage was collected by placement of a diaper under the rat cages, and total food consumed for each period was calculated by subtracting uneaten food plus spillage from total given. Body weights were recorded daily at 0900 h. The latency to the onset of the first meal after the injection and the duration of that meal were also monitored.

[5] = molecular target: T2, ghrelin receptor; test: Ghrelin-stimulated food intake in rats after icv GHS-A; format: in vivo; conditions: 500 ng ghrelin icv, vs normal saline
Protocol: as §1, §2
Food intake was monitored on an hourly basis as described above. In this experiment, food was removed 1.5 h before the start of the test.

[6] = molecular target: Ghrelin/GHRP/GHS Receptor (Rattus norvegicus, UniProt O08725); test: In vitro pituitary incubation method: GH release from isolated pituitary glands, peptide alone or plus stimulator; format: cell-based; parameters: from cell culture of pituitary cells; endogenous in cells; host or cells: dispersed primary rat anterior pituitary cells, 4 days in culture; conditions: Table 12; Stimulator *S = Tyr-DTrp-Ala-Trp-Dphe-NH2 alone 0.3 μg/ml
Protocol: The peptides were synthesized by the solid phase method and purified by HPLC. GH was determined by Radioimmunoassay (RIA).
Hormonal activities were obtained from in vitro studies using pituitaries of 20 day old CD-1 strain Sprague Dawley female rats. Two pituitaries were incubated for a total of 4-6 hours. Medium was removed each hour for RIA of GH level and fresh medium was added again. After two one hour preincubation periods (P1-P2), the vehicle/peptides were added to two one hour incubations (I3-I4). Peptide activity was calculated as the change in the hormonal level (delta) between I3+I4 and P2. For antagonist activity, the incubation was continued for 2 additional hours (I5-I6) where both the peptide and a stimulator of GH secretion was added and the antagonist activity was calculated as the change in the hormonal level (delta) between I5+I6 and P2. The peptides were assayed in triplicate and the hormone was assayed in duplicate. Each value recorded represents the mean of 6. The GH RIA reagents were distributed by the NIH. Control data was collected from isolated pituitary glands treated with only the corresponding vehicle in the absence of peptide or stimulator. Control stimulated data was collected from isolated pituitary glands treated with stimulator alone in the absence of any peptide.

T2 sequence (O08725 whole entry): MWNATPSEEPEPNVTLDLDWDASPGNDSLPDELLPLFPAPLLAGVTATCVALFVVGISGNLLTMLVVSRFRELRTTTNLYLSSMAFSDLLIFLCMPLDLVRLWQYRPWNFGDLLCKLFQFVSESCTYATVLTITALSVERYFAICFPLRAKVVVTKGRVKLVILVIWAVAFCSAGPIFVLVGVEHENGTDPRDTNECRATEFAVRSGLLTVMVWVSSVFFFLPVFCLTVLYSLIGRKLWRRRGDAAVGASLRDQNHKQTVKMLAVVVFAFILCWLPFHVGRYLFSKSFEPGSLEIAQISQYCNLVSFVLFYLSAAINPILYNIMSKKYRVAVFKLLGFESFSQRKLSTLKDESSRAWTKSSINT
Chain of Ghrelin/GHRP/GHS Receptor (O08725 whole entry): as above
T1 sequence (Q92847 whole entry): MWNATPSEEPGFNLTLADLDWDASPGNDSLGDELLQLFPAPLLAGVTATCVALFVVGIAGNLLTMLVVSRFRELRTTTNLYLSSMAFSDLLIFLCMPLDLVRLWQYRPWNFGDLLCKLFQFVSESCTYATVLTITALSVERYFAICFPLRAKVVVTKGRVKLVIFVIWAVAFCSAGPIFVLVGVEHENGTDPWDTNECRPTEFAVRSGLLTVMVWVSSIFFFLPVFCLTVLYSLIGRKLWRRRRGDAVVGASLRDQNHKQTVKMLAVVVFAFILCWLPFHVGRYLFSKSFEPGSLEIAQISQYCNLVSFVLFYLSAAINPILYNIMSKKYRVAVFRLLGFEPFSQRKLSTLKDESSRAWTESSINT

Ki [1]: 0.59 nM
Compound: Cc1[nH]c2ccccc2c1C[C@@H](NC(=O)[C@@H](N)Cc1cnc[nH]1)C(=O)N[C@@H](C)C(=O)N[C@@H](Cc1c[nH]c2ccccc12)C(=O)N[C@H](Cc1ccccc1)C(=O)N[C@@H](CCCCN)C(N)=O [hexarelin] (H-H[dTrp(2-Me)]AW[dF]K-NH2)

Reduction of GH AUC following i.c.v. ghrelin ([2]; GHS-A icv pretreatment, 500 ng ghrelin icv, P<0.0003 or less): 15 fold
Reduction of GH AUC following i.v. ghrelin ([2]; GHS-A iv pretreatment, 5 μg ghrelin iv, P<0.0003 or less): 5 fold
1-h GH AUC's of spontaneous GH secretory episodes at 1100 h and 1400 h, and overall 6-h GH AUC [3]: significantly reduced
Spontaneous food intake in the first hour after injection [4]: significantly inhibited
Cumulative food intake after ghrelin ([5]; 5 μg GHS-A icv): significantly suppressed for up to 5 h
Ghrelin-stimulated food intake in the first hour after injections ([5]; 5 μg antagonist icv, P<0.02 or less): significantly inhibited
Compound: H[d2Nal][dK]W[dF]K-NH2
Plasma GH response to ghrelin i.c.v. [2]: virtually obliterated the GH response to ghrelin
Plasma GH response to ghrelin i.c.v. ([2]; listed as GHS-A): abolished the stimulatory action of ghrelin on GH release
Plasma GH response to ghrelin i.v. ([2]; 250 μg antagonist iv 15 min before 5 μg ghrelin iv, listed as GHS-A): strongly blocked ghrelin's ability to release GH

Stimulated Control GH release [6]: 2218 ± 194 ng/mL
Compound: Tyr-DTrp-Ala-Trp-Dphe-NH2
